Data set [1] concerns TPA-induced mouse ear edema. The experiment in a line: Anti-inflammatory activity, TPA-induced mouse ear edema. Format: in vivo, ICR mice. Conditions: 0.5% in acetone. As for the experimental part:
In order to investigate the anti-inflammatory activity of the derivatives of the present invention, the animal experiments were performed as below. Seven-week-old male ICR mice were treated with TPA (12-O-tetradecanoylphorbol 13-acetate, […]) in the right ear. […] The same experiment was performed by treating hydrocortisone used as a treatment agent for inflammation as a control at the same concentration.
Subsequently, secondly, the adenosine derivative compound of the present invention was treated after 6 hours from TPA treatment. Twenty-four hours after TPA treatment, the animals were euthanized using the cervical dislocation method. Then, a right ear sample was obtained using a 6 mm diameter punch. The activity could be confirmed by weighing using a microbalance. The inhibition rate (%) was calculated using the following Equation 1.

A further data set has as its system intraocular pressure. The experiment in a line: Intraocular pressure reduction after oral administration, dexamethasone-elevated intraocular pressure. Format: in vivo, C57BL/6J mice. Conditions: oral, 5, 10, 20 mg/kg once a day and 10 mg/kg twice a day, 22 days. As for the experimental part: In order to examine the intraocular pressure lowering effect of the derivatives of the present invention, the following animal experiments were performed. […] As controls, only the above excipients were administered to laboratory animals with elevated intraocular pressure once a day, or experimental animals were not treated with dexamethasone or with 4.17 mg/kg of acetazolamide, an intraocular pressure lowering agent, once a day.
Then, the intraocular pressure of the test animal was measured at predetermined intervals for 22 days, and the results are shown in FIG. 8 to FIG. 12. In FIG. 8 to FIG. 12, Control represents a control group in which dexamethasone is not treated to laboratory animals, Vehicle represents a control group in which only excipients were orally administered to laboratory animals with elevated intraocular pressure, and Acetazolamide represents control group in which acetazolamide, an intraocular pressure lowering agent was orally administered to laboratory animals with elevated intraocular pressure.

Data set [2] relates to extracellular matrix proteins (Fibronectin, SMA and MYOC). The experiment in a line: Anti-fibrotic effect on trabecular meshwork tissue (immunostaining). Format: in vivo, C57BL/6J mice. Conditions: Example 2 oral 20 mg/kg once a day and 10 mg/kg twice a day; acetazolamide 4.17 mg/kg once a day. As for the experimental part:
In Experimental Example 10, the ocular tissues of each laboratory animal after measurement of intraocular pressure were extracted and sectioned and immunostaining using antibody was performed to confirm the expression of extracellular matrix proteins (Fibronectin, SMA and MYOC) and the results are shown in FIG. 13. In FIG. 13, Normal represents the trabecular meshwork of the animal which dexamethasone was not treated with in Experimental Example 10, Control represents the trabecular meshwork tissue of the animal to which only the excipient was administered in Experimental Example 10, Acetazolamide represents the trabecular meshwork tissue of the animal to which acetazolamide was administered in Experimental Example 10. Fluorescently stained tissue was observed under fluorescence microscope under the same conditions (magnification 200×, exposure time 1 sec).

Another data set relates to MMP (MMP2, MMP9). The experiment in a line: MMP enzyme protein and mRNA expression in trabecular meshwork tissue. Format: in vivo, C57BL/6J mice. The note with it: Example 2 oral 20 mg/kg once a day and 10 mg/kg twice a day; acetazolamide 4.17 mg/kg once a day. As for the experimental part: (§1) In Experimental Example 10, the expression amounts of these proteins and mRNAs in MMP and TIMP enzymes were measured for the eye tissues of the respective laboratory animals which the measurement of the intraocular pressure was completed, and the results are shown in FIG. 14 to FIG. 17. FIG. 14 and FIG. 15 show protein expression amounts of MMP (MMP2, MMP9) and TIMP (TIMP 1, TIMP2) enzymes, respectively. FIG. 16 and FIG. 17 show mRNA expression levels. In FIG. 14 to FIG. 17, Normal represents the expression level of the animal to which the dexamethasone was not treated in Experimental Example 10, Control represents the expression level of the animal to which only the excipient was administered in Experimental Example 10, and Acetazolamide represents the expression level of the animal to which acetazolamide was administered in Experimental Example 10.

The subject of the next data set is TIMP (TIMP 1, TIMP2). The experiment in a line: TIMP enzyme protein and mRNA expression in trabecular meshwork tissue. Format: in vivo, C57BL/6J mice. Conditions: Example 2 oral 20 mg/kg once a day and 10 mg/kg twice a day; acetazolamide 4.17 mg/kg once a day. As for the experimental part:
as §1

Another data set has as its system each cell line. Nature of the data set: Cytotoxicity, Cyto X cell viability assay kit. The data set is classed as cell-based.
The target of another data set is hERG (Homo sapiens, UniProt Q12809). Nature of the data set: Cardiotoxicity, hERG ligand binding assay (fluorescence polarization). Background: Block of hERG is tested as a sign of cardiac risk.
Data set [3] deals with histidine-requiring Salmonella (TA98, TA100, TA1535 and TA1537 strains) and tryptophan-requiring E. coli (WP2uvrA (pKM101) strain). Nature of the data set: Genotoxicity, back-mutation test with and without metabolic activation. Format: cell-based.
Another data set has as its system rats. The experiment in a line: Single dose toxicity test. Format: in vivo.

Molecules are shown by their SMILES. Some results are limits rather than exact numbers.

hERG, sequence (Q12809 whole entry): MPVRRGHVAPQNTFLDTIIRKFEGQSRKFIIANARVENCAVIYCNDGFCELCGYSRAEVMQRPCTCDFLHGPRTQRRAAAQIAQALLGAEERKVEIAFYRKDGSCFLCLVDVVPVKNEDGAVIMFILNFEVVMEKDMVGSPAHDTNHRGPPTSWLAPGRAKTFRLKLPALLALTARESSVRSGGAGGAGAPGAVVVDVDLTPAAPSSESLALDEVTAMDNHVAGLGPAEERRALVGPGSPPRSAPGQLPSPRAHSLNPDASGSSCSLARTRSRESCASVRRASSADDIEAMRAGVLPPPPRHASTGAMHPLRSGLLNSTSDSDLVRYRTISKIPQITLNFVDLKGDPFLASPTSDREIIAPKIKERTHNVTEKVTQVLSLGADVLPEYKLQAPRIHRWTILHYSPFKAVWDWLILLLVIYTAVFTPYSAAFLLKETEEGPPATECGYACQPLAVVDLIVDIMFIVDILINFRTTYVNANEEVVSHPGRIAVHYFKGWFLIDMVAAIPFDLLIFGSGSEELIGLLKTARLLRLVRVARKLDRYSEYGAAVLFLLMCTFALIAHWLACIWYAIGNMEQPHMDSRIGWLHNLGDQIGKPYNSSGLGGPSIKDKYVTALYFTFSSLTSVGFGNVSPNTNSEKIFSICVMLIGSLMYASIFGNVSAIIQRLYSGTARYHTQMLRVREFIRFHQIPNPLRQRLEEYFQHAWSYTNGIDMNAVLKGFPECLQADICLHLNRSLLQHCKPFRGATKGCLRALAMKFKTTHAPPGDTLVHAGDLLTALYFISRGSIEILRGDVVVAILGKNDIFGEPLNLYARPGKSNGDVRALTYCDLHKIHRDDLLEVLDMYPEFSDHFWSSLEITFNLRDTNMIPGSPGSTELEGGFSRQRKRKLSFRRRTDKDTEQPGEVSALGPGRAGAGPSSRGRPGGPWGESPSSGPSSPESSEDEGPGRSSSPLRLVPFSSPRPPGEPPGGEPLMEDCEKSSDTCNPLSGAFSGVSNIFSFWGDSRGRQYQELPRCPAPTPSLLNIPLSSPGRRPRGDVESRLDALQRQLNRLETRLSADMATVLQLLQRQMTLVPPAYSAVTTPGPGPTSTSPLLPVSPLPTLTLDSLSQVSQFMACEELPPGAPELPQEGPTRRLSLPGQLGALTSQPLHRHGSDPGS

Take `O[C@@H]1[C@H](O)CS[C@H]1n1cnc2c(NCc3cccc(Cl)c3)nc(Cl)nc21` [Example 2, (2R,3R,4S)-2-(2-chloro-6-(3-chlorobenzylamino)-9H-purin-9-yl)tetrahydrothiophene-3,4-diol]: the “TPA-induced mouse ear edema” value in [1] is recorded as “reduced by a small amount”. The “intraocular pressure, dose dependence” value in the data set on intraocular pressure is “reduction in intraocular pressure, which was dependent on the dose”. In data set [2], the “expression of fibronectin, SMA and MYOC protein in trabecular meshwork tissue” value is listed as “greatly reduced”. The “protein and mRNA expression levels of MMP enzyme compared with the normal group” value in the data set with MMP (MMP2, MMP9) was “significantly increased”. Also, the “protein and mRNA expression levels of TIMP enzyme compared with the normal group” value in the data set with TIMP (TIMP 1, TIMP2) was “significantly decreased”. Further, the “toxicity, Cytotoxicity Test” value in the data set with each cell line is “Not found”. Also, the “toxicity, Cardiotoxicity test” value on hERG is reported as “Not found”. Besides, at hERG (human, hERG channel protein (ligand binding assay), probe red fluorescent hERG channel ligand tracer, 10 μM, read-out: inhibition rate (hERG channel ligand tracer binding)), the inhibition at 10 µM was not above 50%. Also, in [3], the “toxicity, Genotoxicity test” value was “Not found”. In addition, in data set [3] (all doses of each strain, regardless of metabolic activation), the “number of back-mutation reversion colonies” value was “did not exceed twice the negative control”. The “toxicity, Single dose toxicity test” value in the data set with rats (rat, in vivo) is listed as “Not found”. Besides, the dead animals entry with rats (single dose of 2,000 mg/kg, 5 male rats and 5 female rats) was “there was no dead animal”.

In general, inhibition refers to the change of the read-out against control, counted positive when it falls.

For the origin of these results see patent US12083140B2, “Pharmaceutical composition for preventing and treating glaucoma, containing adenosine derivative” (FUTURE MEDICINE CO., LTD., priority 2017, dated 2024).
